Source: patent US20240108740A1, “THERAPEUTIC COMPOSITIONS INCLUDING SPN10 AND USES THEREOF” (Stealth BioTherapeutics Inc., priority 2022, published 2024)
Residues, ends and D or L forms follow the SMILES beside them.

Experiments:
Caco-2 cells = assay: Example 25: mitochondrial membrane potential after t-BHP (TMRM, CLSM); format: cell-based, human; details: t-BHP 1 mM, 4 hours
Procedure: Caco-2 cells will be treated with t-BHP (1 mM) alone or in the presence of peptide conjugates (0.1 μM); aromatic-cationic peptides (an equivalent molar dose of aromatic-cationic peptide based on the concentration of the aromatic-cationic peptide administered in the peptide conjugate treatment group); SPN10(s) (an equivalent molar dose of SPN10 based on the concentration of SPN10 administered in the peptide conjugate treatment group); or SPN10(s) in combination with aromatic-cationic peptides (e.g., an equivalent molar dose of SPN10 based on the concentration of SPN10 administered in the peptide conjugate treatment group and an equivalent molar dose of aromatic-cationic peptide based on the concentration of aromatic-cationic peptide administered in the peptide conjugate treatment group) for 4 hours, and then incubated with TMRM and examined under CLSM.

Sprague-Dawley rats = assay: Example 32: mitochondrial dysfunction in rats fed a high-fat diet; details: rat, in vivo
Procedure: Animals and reagents. Thirty male Sprague-Dawley rats will be obtained from Charles River Laboratory (Wilmington, MA) and housed in a temperature (22° C.) and light controlled room with free access to food and water. Twenty of the animals will be maintained on a high (60%) fat diet (Research Dyets, Bethlehem, PA). Skeletal muscle will be obtained from anesthetized animals (100 mg/kg i.p. ketamine-xylazine). After surgery, animals will be sacrificed by cervical dislocation while anesthetized. Amplex Red Ultra reagent will be obtained from Molecular Probes (Eugene, OR). Stigmatellin and horseradish peroxidase (HRP) will be obtained from Fluka Biochemika (Buchs, Switzerland). All other chemicals will be purchased from Sigma-Aldrich (St. Louis, MO). […]
Mitochondrial respiration and H2O2 production measurements. […] Mitochondrial H2O2 production will be measured at 30° C. during state 4 respiration in buffer Z (10 μg/mL oligomycin) by continuously monitoring oxidation of Amplex Red using a Spex Fluoromax 3 (Jobin Yvon, Ltd.) spectrofluorometer with temperature control and magnetic stirring at >1000 rpm. […] After baseline fluorescence (reactants only) is established, the reaction will be initiated by addition of a permeabilized fiber bundle to 300 μL of buffer Z containing 5 μM Amplex Red and 0.5 U/mL HRP, with succinate at […]. […]

SMILES: N=C(N)NCCC[C@H](NC(=O)[C@@H](N)Cc1c[nH]c2ccccc12)C(=O)N[C@@H](Cc1c[nH]c2ccccc12)C(=O)N[C@@H](CCCCN)C(N)=O [SPN10, H-L-Trp-L-Arg-L-Trp-L-Lys-NH2] (H-WRWK-NH2)
- mitochondrial depolarization caused by t-BHP (Caco-2 cells): protect against mitochondrial depolarization
- mitochondrial dysfunction under a high-fat diet (Sprague-Dawley rats): reduce mitochondrial dysfunction
